Laboratory results taken from US20250389725A1, “METHOD FOR DETECTION OF SULFUR-CONTAINING AMINO ACID AS BIOMARKER FOR GLIOBLASTOMA USING NOVEL FLUORESCENT PROBE AND FLUORESCENCE-GUIDED SURGERY IMAGING APPLICATION THEREOF” (UNIVERSITY-INDUSTRY COOPERATION GROUP OF KYUNG HEE …, priority 2023, published 2025).

Experiments:
Assay type in all cases: cell-based
[1] = system: glioblastoma cells (U87MG); assay: CCK-8 cell viability (toxicity), U87MG; conditions: CCK-8, compared to leaving groups with similar structures
Protocol: (§1) Specifically, for cell preparation, approximately 5×10^3 cells each of glioblastoma cells (U87MG), hepatoma cells (Huh7), cervical cancer cells (HeLa), and skin cancer cells (B16F10) were treated in a 96-well clear plate (SPL Life Science, Ref. of Korea), cultured at 37° C. for 24 hours, and then treated with Compound 1 (NPO-o-Pyr, 10 μM) and analyzed using a CCK-8 assay kit (Dofindo, Japan) according to the manufacturer's instructions. Absorbance levels were analyzed at a wavelength of 490 nm by a microplate reader (SpctraMax Gemini EM, Molecular Devices, US). 2-Hydroxypyridine and various leaving groups with similar structures thereto were treated in U87MG, Huh7, HeLa, and B16F10 cells, and the cell viability was measured, which was shown in FIG. 12.

hepatoma cells (Huh7) = assay: CCK-8 cell viability (toxicity), Huh7; conditions: Huh7, CCK-8, compared to leaving groups with similar structures
Protocol: as §1

[2] = system: cervical cancer cells (HeLa); assay: CCK-8 cell viability (toxicity), HeLa; conditions: CCK-8, compared to leaving groups with similar structures
Protocol: as §1

[3] = system: skin cancer cells (B16F10); assay: CCK-8 cell viability (toxicity), B16F10; conditions: B16F10, CCK-8, compared to leaving groups with similar structures
Protocol: as §1

Measured: toxicity (cell viability)

Oc1ccccn1 [2-hydroxypyridine]
very low: [1] | hepatoma cells (Huh7) | [2] | [3]
